Tests used:
[1] = system: Pyrenophora teres; experiment: Example B-15: action against Pyrenophora teres (net blotch) on barley leaf segments; assay type: in vivo; details: 4 days after inoculation
Method: Example B-15: Action Against Pyrenophora teres (Net Blotch) on Barley Barley leaf segments are placed on agar in multiwell plates (24-well format) and sprayed with test solutions (200 ppm, […], and 20 ppm of active ingredient). After drying, the leaf disks are inoculated with a spore suspension of the fungus. After appropriate incubation the activity of a compound is assessed 4 days after inoculation as preventive fungicidal activity (in %).

[2] = system: Monographella nivalis (Fusarium nivale, Microdochium nivale); experiment: Example B-14: action against Monographella nivalis, fungal growth assay; assay type: cell-based; details: 72 hrs
Method: Example B-14: Action Against Monographella nivalis (Anamorph: Fusarium nivale, Microdochium nivale; Snow Mould)—Fungal Growth Assay After placing a DMSO-solution (2% Dimethylsulfoxid, 0.025% Tween 20) of the test compounds into a microtiter plate (96-well format) the nutrient broth containing the fungal spores was added. 40.000 conidia/ml of the fungus from cryogenic storage were directly mixed into nutrient broth (PDB potato dextrose broth). The compounds were tested at a variety of application rates; these rates are shown in parts per million (ppm) in the table. The test plates were incubated at 24° C. and the inhibition of growth was measured photometrically after 72 hrs (0=no growth inhibition, ratings of 80% to 99% mean good to very good inhibition, 100%=complete inhibition).

[3] = system: Mycosphaerella arachidis (Cercospora arachidicola); experiment: Example B-12: action against Mycosphaerella arachidis, fungal growth assay; assay type: cell-based; details: 6-7 days
Method: (§1) Example B-12: Action Against Mycosphaerella arachidis (Early Leaf Spot of Groundnut; Cercospora arachidicola (Anamorph))—Fungal Growth Assay Conidia of the fungus from cryogenic storage were directly mixed into nutrient broth (PDB potato dextrose broth). After placing a (DMSO) solution of the test compounds into a microtiter plate (96-well format) the nutrient broth containing the fungal spores was added. The test plates were incubated at 24° C. and the inhibition of growth was measured photometrically after 6-7 days. The activity of a compound is expressed as fungal growth inhibition (0=no growth inhibition, ratings of 80% to 99% mean good to very good inhibition, 100%=complete inhibition).

[4] = system: Septoria tritici; experiment: Example B-13: action against Septoria tritici, fungal growth assay; assay type: cell-based; details: for fungal growth inhibition: 72 hrs
Method: as §1, with “B-13:” for “B-12:”, “Septoria tritici—Fungal” for “Mycosphaerella arachidis (Early Leaf Spot of Groundnut; Cercospora arachidicola (Anamorph))—Fungal”, “determined” for “measured”, “72 hrs.” for “6-7 days.”

[5] = system: Botrytis cinerea; experiment: Example B-11: action against Botrytis cinerea, fungal growth assay; assay type: cell-based; details: 48-72 hrs
Method: as §1, with “B-11:” for “B-12:”, “Botrytis cinerea—Fungal” for “Mycosphaerella arachidis (Early Leaf Spot of Groundnut; Cercospora arachidicola (Anamorph))—Fungal”, “determined” for “measured”, “48-72 hrs.” for “6-7 days.”

## CC(Cc1ccc(Cl)cc1Cl)NC(=O)c1cn(C)nc1C(F)F (single isomer, unassigned; (-)) [(−)-3-difluoromethyl-1-methyl-1H-pyrazole-4-carboxylic acid ] [(−)-3-difluoromethyl-1-methyl-1H-pyrazole-4-carboxylic acid [2-(2,4-dichlorophenyl)-1-methyl-ethyl]-amide]
[1]; 20 ppm
  preventive fungicidal activity: 80%
[1]; 60 ppm
  preventive fungicidal activity: 100%
[1]; 200 ppm
  preventive fungicidal activity: 100%
[2]; 2 ppm
  inhibition of growth: 0%
[2]; 6 ppm
  inhibition of growth: 0%
[2]; 20 ppm
  inhibition of growth: 20%
[3]; 2 ppm
  fungal growth inhibition: 0%
[3]; 6 ppm
  fungal growth inhibition: 50%
[3]; 20 ppm
  fungal growth inhibition: 80%
[4]; 2 ppm
  fungal growth inhibition: 0%
[4]; 6 ppm
  fungal growth inhibition: 80%
[4]; 20 ppm
  fungal growth inhibition: 100%
[5]; 2 ppm
  fungal growth inhibition: 0%
[5]; 6 ppm
  fungal growth inhibition: 20%
[5]; 20 ppm
  fungal growth inhibition: 20%

## CC(Cc1ccc(Cl)cc1Cl)NC(=O)c1cn(C)nc1C(F)F (stereo not shown) [Compound 1.197, 3-difluoromethyl-1-methyl-1H-pyrazole-4-carboxylic acid [2-(2,4-dichlorophenyl)-1-methyl-ethyl]-amide]
other
  melting point: 157 °C

## CC(Cc1ccc(Br)cc1Cl)NC(=O)c1cn(C)nc1C(F)F (stereo not shown) [Compound 1.451, 3-difluoromethyl-1-methyl-1H-pyrazole-4-carboxylic acid [2-(4-bromo-2-chlorophenyl)-1-methyl-ethyl]-amide]
other
  melting point: 183 to 184 °C

## CC(Cc1ccc(-c2ccc(Cl)cc2)cc1Cl)NC(=O)c1cn(C)nc1C(F)F (stereo not shown) [Compound 1.462, 3-difluoromethyl-1-methyl-1H-pyrazole-4-carboxylic acid [2-(3,4′-dichlorobiphenyl-4-yl)-1-methyl-ethyl]-amide]
other
  melting point: 96 to 98 °C

## CC(Cc1ccc(Cl)cc1Cl)NC(=O)c1cn(C)nc1C(F)F (single isomer, unassigned; (+)) [(+)-3-difluoromethyl-1-methyl-1H-pyrazole-4-carboxylic acid ] [(+)-3-difluoromethyl-1-methyl-1H-pyrazole-4-carboxylic acid [2-(2,4-dichlorophenyl)-1-methyl-ethyl]-amide]
[1]; 20 ppm
  preventive fungicidal activity: 100%
[1]; 60 ppm
  preventive fungicidal activity: 100%
[1]; 200 ppm
  preventive fungicidal activity: 100%
[2]; 2 ppm
  inhibition of growth: 100%
[2]; 6 ppm
  inhibition of growth: 100%
[2]; 20 ppm
  inhibition of growth: 100%
[5]; 2 ppm
  fungal growth inhibition: 80%
[5]; 6 ppm
  fungal growth inhibition: 100%
[5]; 20 ppm
  fungal growth inhibition: 100%

## CC(Cc1ccc(Cl)cc1Cl)NC(=O)c1cn(C)nc1C(F)F (single isomer, unassigned; (+)) [(+)-3-difluoromethyl-1-methyl-1H-pyrazole-4-carboxylic acid [2-(2,4-dichlorophenyl)-1-methyl-ethyl]-amide]
[3]; Mycosphaerella arachidis, 20 ppm
  inhibition at 20 ppm: 100%
[4]; Zymoseptoria tritici, 72 h, 6 ppm
  inhibition at 6 ppm: 100%
[4]; Zymoseptoria tritici, 72 h, 20 ppm
  inhibition at 20 ppm: 100%

## Cn1cc(C(=O)NC2(Cc3ccc(Cl)cc3Cl)CC2)c(C(F)F)n1 [Compound 1.231, 3-difluoromethyl-1-methyl-1H-pyrazole-4-carboxylic acid [1-(2,4-dichlorobenzyl)-cyclopropyl]-amide]
other
  melting point: 165 to 168 °C
